Here are results for 11 compounds from ChEMBL document CHEMBL1201862, “PubChem BioAssay data set” (2004).

SMILES strings stand for the structures. Where “and” joins values, the source holds several entries; their conditions need not be identical. Identical values can stand only once.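 Five compound concentrations were applied to cells in 96-well plates for 48 hours; endpoints were derived by simple linear interpolation of the resulting dose-response curve. GI50 marks 50% less growth.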 Calls of active or inactive are those of the source. Cut-off read from the data, not from the text of the source: active = GI50 up to about 1.1 µM and inactive = higher.

Among the test systems are KM12; SF-268; UACC-257; LOX IMVI; Malme-3M; BT-549; MDA-MB-435; NCI-H23; EKVX; K562; HOP-62; SF-539; RXF 393; OVCAR-8; U-251; A549; Hs-578T; T47D; SNB-19; HCT-116.
What all share (assay): inhibition of tumour cell growth, NCI panel, 48 h

`N=C(N)N/N=C/c1c(-c2cc([N+](=O)[O-])c(Cl)cc2Cl)nc2sccn12`: the GI50 with KM12 is 168 nM (active) and 1.19 µM (inactive); in the experiment with SF-268, 1.83 µM (inactive); in the experiment on UACC-257, 1.41 µM (inactive) and 1.44 µM (inactive); with LOX IMVI, 130 nM (active) and 1.18 µM (inactive); with Malme-3M, 1.67 µM (inactive) and 239 nM (active); with BT-549 it was 1.4 µM (inactive) and 1.46 µM (inactive). Further, the GI50 was 332 nM (active) and 1.7 µM (inactive) with MDA-MB-435; 1.56 µM (inactive) and 1.36 µM (inactive) with NCI-H23; 1.72 µM (inactive) and 1.77 µM (inactive) with EKVX; 242 nM (active) and 746 nM (active) with K562; 1.89 µM (inactive) in the experiment with HOP-62; 1.53 µM (inactive) and 1.85 µM (inactive) in the experiment on SF-539. The GI50 is 1.46 µM (inactive) in the experiment on RXF 393; 1.98 µM (inactive) and 2 µM (inactive) in the experiment with OVCAR-8; 1.05 µM (active) and 272 nM (active) in the experiment with U-251; 1.82 µM (inactive) and 1.51 µM (inactive) with A549; 1.54 µM (inactive) and 1.53 µM (inactive) with Hs-578T.

Turning to `C[C@]1(O)O[C@@H]2OCC[C@@H]2C2=C1C(=O)c1ccccc1C2=O`, the GI50 with KM12 was 14.8 µM (inactive); in the experiment with SF-268 it was 12.8 µM (inactive); in the experiment on UACC-257 it was 17.1 µM (inactive); with LOX IMVI it was 11.4 µM (inactive); with Malme-3M it was 15.9 µM (inactive); with MDA-MB-435, 6.56 µM (inactive). Moreover, the GI50 with NCI-H23 is 14.7 µM (inactive); with T47D it was 18.3 µM (inactive); in the experiment with EKVX it was 20 µM (inactive); in the experiment on K562 it was 15.7 µM (inactive); in the experiment on HOP-62 it was 12.7 µM (inactive); in the experiment with SF-539, 17.3 µM (inactive). The GI50 with SNB-19 is 18 µM (inactive); in the experiment with RXF 393 it was 12.7 µM (inactive); in the experiment on OVCAR-8, 15.3 µM (inactive); with U-251 it was 15.2 µM (inactive); with A549, 17.9 µM (inactive); with Hs-578T, 30.3 µM (inactive).

For the compound `Cc1ccc(Cl)c2[nH]c(-c3ccccc3)cc(=O)c12`, the GI50 was 21.4 µM (inactive) in the experiment on KM12; 14.8 µM (inactive) in the experiment on SF-268; 40.9 µM (inactive) in the experiment on UACC-257; 22.5 µM (inactive) in the experiment with LOX IMVI; > 100 µM (inactive) in the experiment on Malme-3M; 21.1 µM (inactive) in the experiment with MDA-MB-435. The GI50 is 29.2 µM (inactive) in the experiment on HCT-116; 46.7 µM (inactive) with NCI-H23; 11.5 µM (inactive) in the experiment on T47D; 6.41 µM (inactive) in the experiment with EKVX; 30.1 µM (inactive) in the experiment with K562; 78.3 µM (inactive) in the experiment with HOP-62. Also, the GI50 with RXF 393 is 44 µM (inactive); with OVCAR-8, 50.9 µM (inactive); in the experiment with U-251, 77.8 µM (inactive); in the experiment with A549, 24.1 µM (inactive); in the experiment on Hs-578T it was 59.2 µM (inactive).

Turning to `C=C(Cl)/C(=C\Cl)CCC(Cl)C(C)C` (stereo unspecified), the GI50 in the experiment with KM12 was > 100 µM (inactive); with SF-268 it was > 100 µM (inactive); in the experiment with UACC-257, > 100 µM (inactive); with LOX IMVI it was 35.1 µM (inactive); in the experiment with Malme-3M, > 100 µM (inactive); with BT-549 it was > 100 µM (inactive). Also, the GI50 in the experiment with MDA-MB-435 was > 100 µM (inactive); with HCT-116 it was > 100 µM (inactive); in the experiment on NCI-H23 it was > 100 µM (inactive); in the experiment on EKVX, > 100 µM (inactive); with K562 it was 54.3 µM (inactive); in the experiment with HOP-62 it was > 100 µM (inactive). The GI50 in the experiment on SF-539, in the experiment on SNB-19, in the experiment on RXF 393, with U-251, in the experiment with A549 and in the experiment on Hs-578T was > 100 µM (inactive) each time.

`CC(C)=C=CC(C)(C)NS(=O)(=O)NC(C)(C)C=C=C(C)C`: the GI50 is > 100 µM (inactive) with KM12; 89.3 µM (inactive) in the experiment on SF-268; > 100 µM (inactive) in the experiment on UACC-257; > 100 µM (inactive) with LOX IMVI; > 100 µM (inactive) in the experiment on Malme-3M; > 100 µM (inactive) in the experiment on MDA-MB-435. Also, the GI50 is > 100 µM (inactive) in the experiment on HCT-116; > 100 µM (inactive) with NCI-H23; 15.7 µM (inactive) with T47D; > 100 µM (inactive) in the experiment on EKVX; 19.8 µM (inactive) with K562; > 100 µM (inactive) in the experiment with HOP-62. The GI50 with SF-539 is > 100 µM (inactive); in the experiment on SNB-19, > 100 µM (inactive); in the experiment with OVCAR-8, > 100 µM (inactive); with U-251, > 100 µM (inactive); in the experiment with A549, 42.1 µM (inactive); in the experiment with Hs-578T, > 100 µM (inactive).

Regarding `S=C(c1c[nH]c2ccccc12)N1CCN(c2ccccc2)CC1`, the GI50 in the experiment with KM12 was 82.8 µM (inactive); in the experiment on SF-268, 19.8 µM (inactive); with UACC-257, > 100 µM (inactive); in the experiment on LOX IMVI it was > 100 µM (inactive); in the experiment with Malme-3M, 18.8 µM (inactive); with BT-549 it was > 100 µM (inactive). The GI50 in the experiment with MDA-MB-435 is > 100 µM (inactive); in the experiment with HCT-116, > 100 µM (inactive); in the experiment with NCI-H23, > 100 µM (inactive); in the experiment on EKVX it was 19.4 µM (inactive); in the experiment with K562, > 100 µM (inactive); in the experiment on HOP-62, 75.3 µM (inactive). Also, the GI50 in the experiment on SF-539 is 71.6 µM (inactive); with SNB-19, > 100 µM (inactive); with RXF 393, > 100 µM (inactive); in the experiment with OVCAR-8 it was 37.8 µM (inactive); in the experiment on U-251 it was 14.2 µM (inactive); in the experiment on Hs-578T, 1.06 µM (active).

Regarding `C=C(C)CCC1CCCCC(CN(C)C)C1=O` (stereo unspecified), the GI50 in the experiment on KM12, in the experiment on SF-268, in the experiment on UACC-257, in the experiment with LOX IMVI, in the experiment on MDA-MB-435 and in the experiment on HCT-116 was > 100 µM (inactive) each time. The GI50 with NCI-H23, with T47D, in the experiment on EKVX, in the experiment on K562, in the experiment with HOP-62 and in the experiment with SF-539 was > 100 µM (inactive) each time. The GI50 with SNB-19, in the experiment on OVCAR-8, with U-251, with A549 and in the experiment on Hs-578T was > 100 µM (inactive) each time.

In the case of `O=C1/C(=N/O)Cc2c(Br)ccc(Br)c21`, the GI50 was 67.3 µM (inactive) in the experiment with KM12; 35.2 µM (inactive) with SF-268; 42.2 µM (inactive) in the experiment with UACC-257; 31.9 µM (inactive) in the experiment on LOX IMVI; 39.6 µM (inactive) with MDA-MB-435; 55.1 µM (inactive) with HCT-116. The GI50 in the experiment with NCI-H23 was 58.7 µM (inactive); with T47D, 51.3 µM (inactive); with EKVX it was 28.2 µM (inactive); in the experiment with K562, 26 µM (inactive); in the experiment with HOP-62 it was > 100 µM (inactive); in the experiment with SF-539, > 100 µM (inactive). Also, the GI50 in the experiment on RXF 393 was 99.3 µM (inactive); in the experiment on OVCAR-8, 42.7 µM (inactive); in the experiment with U-251 it was 39.6 µM (inactive); in the experiment with Hs-578T it was 37.8 µM (inactive).

Take `Cc1cc(=O)oc2c(CNC(C(=O)O)C(C)O)c(O)ccc12` (stereo unspecified): the GI50 in the experiment on KM12 was > 100 µM (inactive); in the experiment with SF-268 it was > 100 µM (inactive); in the experiment with UACC-257, > 100 µM (inactive); with LOX IMVI, > 100 µM (inactive); with Malme-3M it was 24.8 µM (inactive); with MDA-MB-435, > 100 µM (inactive). The GI50 with HCT-116, with NCI-H23, with T47D, with EKVX, in the experiment with K562 and with HOP-62 was > 100 µM (inactive) in each case. Moreover, the GI50 with SF-539, with SNB-19, in the experiment on RXF 393, with OVCAR-8, in the experiment with U-251 and with A549 was > 100 µM (inactive) each time. Moreover, the GI50 in the experiment on Hs-578T is 77.4 µM (inactive).

Regarding `COc1cccc(C2c3cc4c(cc3OC3COC(=O)C32)OCO4)c1OC` (stereo unspecified), the GI50 with KM12, in the experiment on SF-268, with UACC-257, in the experiment on LOX IMVI, with Malme-3M and in the experiment on BT-549 was > 100 µM (inactive) each time. For the same compound, the GI50 in the experiment with HCT-116 is 20.2 µM (inactive); in the experiment with EKVX it was > 100 µM (inactive); in the experiment on HOP-62 it was 61.1 µM (inactive); in the experiment with SF-539, > 100 µM (inactive); with SNB-19, > 100 µM (inactive); with RXF 393 it was 83.4 µM (inactive). Besides, the GI50 with OVCAR-8 was > 100 µM (inactive); with A549 it was > 100 µM (inactive); in the experiment on Hs-578T it was 32.7 µM (inactive).

Turning to `O=C1/C(=N/c2ccccc2)Oc2cc(O)ccc21`, the GI50 in the experiment on KM12, in the experiment with SF-268, in the experiment with UACC-257, in the experiment on LOX IMVI, with Malme-3M and in the experiment with MDA-MB-435 was > 100 µM (inactive) each time. For the same compound, the GI50 with HCT-116, with NCI-H23, in the experiment with T47D, in the experiment on EKVX, in the experiment on K562 and in the experiment with HOP-62 was > 100 µM (inactive) throughout. The GI50 with SF-539, in the experiment on SNB-19, in the experiment on RXF 393, in the experiment on OVCAR-8, in the experiment with U-251 and in the experiment on A549 was > 100 µM (inactive) throughout.
